In this assay the target is T1, human MCH1R receptor (Homo sapiens, UniProt Q99705).
T1 construct: host or cells: CHO-K1
Description: MCH1R receptor binding by SPA ([125I]-MCH displacement). The following applies: 0.2 nM [125I]-MCH, membranes of CHO-K1 cells expressing hMCH1 receptor, WGA SPA beads; Ki calculated from IC50. The protocol: The compounds according to the invention were evaluated for their binding to the human MCH1R receptor by the following method:
Compounds: MCH peptide was purchased from Phoenix pharmaceuticals. (Phe^13, [^125I]Tyr^19 Melanine-Concentrating Hormone (human, mouse, rat) ([^125I]-MCH) was obtained from NEN life Science Products. Inc. Boston, Mass. Wheat germ agglutinine SPA beads (RPNQ 0001) were obtained from Amersham-Pharmacia Biotech. All other reagents used are of highest purity from different resources available. Protein Kits, Micro BCA™ Protein Assay Reagent Kit (Cat No. 23235) were purchased from Piece, Rockford, Ill., USA.
CHO-K1 cells expressing hMCH1 receptor were purchased from Euroscreen.
CHO-K1 hMCHR1 (Euroscreen, Brussels, Belgium, # ES-370-C) were cultivated in Nutrient mixture Ham's F-12 with Glutamax I (Gibco-BRL #31765-027) supplemented with 10% heat-inactivated foetal calf serum (FCS, Gibco-BRL #10108-165) and 400 μg/ml geniticin (Gibco-BRL #1140-0359). The cells were sub-cultivated twice weekly with split ratio=1:20-1:30. For membrane preparation the cells were cultured in […] and the cells were harvested when 90% confluent.
When the cells reached more than 90% confluence, dishes (500 cm^2) were rinsed twice with 20 ml PBS (Ca^2+ and Mg^2+ free). Buffer A, which contains Tris.HCl (15), MgCl2.6H2O (2), EDTA (0.3), EGTA (1) in mM with pH 7.5, 25 ml was added and cells were suspended using a window scraper. The cells were collected in 50 ml Falcon tube pre-cooled on ice and then centrifuged for 3 minutes at 1500 g at 4° C. […]
The radio labeled [^125I]-MCH was diluted with cold MCH in ratio 1:3. […] The results were calculated using Excel program and the curves were drawn using a program GraphPad Prism.
For screening of the substances the amount of the beads used was 0.25 mg/well and the amount of the membrane protein was 4 μg/well 0.2 nM of labeled MCH was used. […] The samples were counted using Microbeta counter (Wallac Trilux 1450 Micro beta counter, Wallac, Finland) for 2 minutes and the results were calculated by using the computer program Activity Base. […]

SMILES strings stand for the structures. Counter-ions that a name gives are not always drawn.

T1 sequence (Q99705 whole entry): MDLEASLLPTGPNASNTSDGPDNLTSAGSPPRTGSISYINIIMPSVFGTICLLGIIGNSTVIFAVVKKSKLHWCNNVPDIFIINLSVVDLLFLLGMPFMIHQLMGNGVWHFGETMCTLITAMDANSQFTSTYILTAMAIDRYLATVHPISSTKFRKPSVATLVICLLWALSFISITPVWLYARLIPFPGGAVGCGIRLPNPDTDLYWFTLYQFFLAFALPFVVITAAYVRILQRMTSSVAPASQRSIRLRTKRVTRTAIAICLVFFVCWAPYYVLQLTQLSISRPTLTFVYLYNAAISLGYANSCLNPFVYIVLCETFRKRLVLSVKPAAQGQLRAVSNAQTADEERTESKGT

In the case of `COc1ccc([C@@]23CC[C@@H](NC(=O)Nc4ccc(OC(F)(F)F)cc4)C[C@@H]2N(C)CC3)cc1OC` (relative stereo) [Example 70, N-[(3aS*,6R*,7aS*)-3a-(3,4-dimethoxyphenyl)-1-methyloctahydro-1H-indol-6-yl]-N′-[4-(trifluoromethoxy)phenyl]urea trifluoroacetate], the Ki is 52 nM.

In the case of `CCOc1ccc([C@@]23CC[C@@H](NC(=O)Nc4ccc(F)c(F)c4)C[C@@H]2N(C)CC3)cc1OCC` (relative stereo) [Example 208, N-[(3aS*,6R*,7aS*)-3a-(3,4-diethoxyphenyl)-1-methyloctahydro-1H-indol-6-yl]-N′-(3,4-difluoro]henyl)urea trifluoroacetate], the inhibitory constant (Ki) is 258 nM.

Take `C=CCN(C(=O)Nc1ccc(Cl)c(C(F)(F)F)c1)C1CCC2(c3ccc(OC)c(OC)c3)CCN(C)C2C1` (stereo not drawn) [Example 159, N-ally-N′-[4-chloro-3-(trifluoromethyl)phenyl]-N-[(3aS*,6R*,7aS*)-3a-(3,4-dimethoxyphenyl)-1-methyloctahydro-1H-indol-6-yl]urea]: the Ki is 75 nM.

(Values after patent US20050239841A1, “New compounds” (priority 2003, published 2005).)
